Measurements taken from ChEMBL document CHEMBL1154065, “Discovery of novel P3 sulfonamide-capped inhibitors of HCV NS3 protease. Inhibitors with improved cellular potencies” (Bioorg Med Chem, 2009).

Columns and labels:
[1] = Inhibition of HCV NS3 protease by continuous spectrophotometric assay; set-up: species or system Hepacivirus hominis
Hepatitis C virus [2] = test: Antiviral activity against Hepatitis C virus infected in human hepatoma cell by replicon assay; type: functional, Hepacivirus hominis
Rattus norvegicus = test: AUC (0 to 6 hrs) in po dosed rat; type: ADME, organism-based, Plasma; set-up: time < 6 hr, route oral; conditions: in vivo
Hepatitis C virus [3] = test: Ratio of boceprevir EC90 to compound EC90 for Hepatitis C virus infected in human hepatoma cell; type: functional, Hepacivirus hominis
[4] = AUC (0 to 6 hrs) in rat at 10 mg/kg, po; type: ADME, organism-based; set-up: time < 6 hr, dose 10 mg/kg, route oral; conditions: plasma
[5] = Selectivity for HCV NS3 protease over human neutrophil elastase
[6] = AUC (0 to 6 hrs) in monkey at 3 mg/kg, po; type: ADME, organism-based, Macaca mulatta; set-up: time < 6 hr, dose 3 mg/kg, route oral; conditions: rhesus monkey, plasma

Structure (SMILES): CN(C[C@@H](NC(=O)N[C@H](C(=O)N1C[C@H]2[C@@H]([C@H]1C(=O)NC(CC1CCC1)C(=O)C(N)=O)C2(C)C)C(C)(C)C)C(C)(C)C)S(C)(=O)=O (some centres undefined)
- Ki [1]: 5 nM
- EC90 (Hepatitis C virus [2]): 150 nM
- AUC (Rattus norvegicus): 0.06 µM·h
- Ratio (Hepatitis C virus [3]): 2

Structure (SMILES): CC(C)[C@@H](CN(C)S(=O)(=O)c1cccs1)NC(=O)N[C@H](C(=O)N1C[C@H]2[C@@H]([C@H]1C(=O)NC(CC1CCC1)C(=O)C(N)=O)C2(C)C)C(C)(C)C (some centres undefined)
- Ki [1]: 12 nM
- EC90 (Hepatitis C virus [2]): 100 nM

Structure (SMILES): C=CCNC(=O)C(=O)C(CCC)NC(=O)[C@@H]1[C@@H]2[C@H](CN1C(=O)[C@@H](NC(=O)N[C@H](CN(C)S(=O)(=O)c1ccccn1)C(C)(C)C)C(C)(C)C)C2(C)C (some centres undefined)
- Ki [1]: 14 nM
- EC90 (Hepatitis C virus [2]): 180 nM
- AUC (Rattus norvegicus): 1.02 µM·h

Structure (SMILES): CN(C[C@@H](NC(=O)N[C@H](C(=O)N1C[C@H]2[C@@H]([C@H]1C(=O)NC(CC1CCC1)C(=O)C(N)=O)C2(C)C)C(C)(C)C)C(C)(C)C)S(=O)(=O)C1CC1 (some centres undefined)
- Ki [1]: 5 nM
- EC90 (Hepatitis C virus [2]): 90 nM
- AUC (Rattus norvegicus): 0.09 µM·h

Structure (SMILES): C=CCNC(=O)C(=O)C(CCCC)NC(=O)[C@@H]1[C@@H]2[C@H](CN1C(=O)[C@@H](NC(=O)N[C@H](CN(C)S(=O)(=O)N(C)C)C(C)(C)C)C1CCCCC1)C2(C)C (some centres undefined)
- Ki [1]: 6 nM
- EC90 (Hepatitis C virus [2]): 80 nM
- AUC(0-t) at 6 h [4]: 1.74 µM·h

Structure (SMILES): CN(C[C@@H](NC(=O)N[C@H](C(=O)N1C[C@H]2[C@@H]([C@H]1C(=O)NC(CC1CCC1)C(=O)C(N)=O)C2(C)C)C(C)(C)C)C(C)(C)C)S(=O)(=O)c1ccccc1 (some centres undefined)
- Ki [1]: 5 nM
- EC90 (Hepatitis C virus [2]): 75 nM

Structure (SMILES): CC[C@H](C)[C@@H](CN(C)S(=O)(=O)c1ccccc1)NC(=O)N[C@H](C(=O)N1C[C@H]2[C@@H]([C@H]1C(=O)NC(CC1CCC1)C(=O)C(N)=O)C2(C)C)C(C)(C)C (some centres undefined)
- Ki [1]: 13 nM
- EC90 (Hepatitis C virus [2]): 250 nM

Structure (SMILES): CC(C)[C@@H](CNS(=O)(=O)c1ccccc1)NC(=O)N[C@H](C(=O)N1C[C@H]2[C@@H]([C@H]1C(=O)NC(CC1CC1)C(=O)C(N)=O)C2(C)C)C(C)(C)C (some centres undefined)
- Ki [1]: 10 nM
- EC90 (Hepatitis C virus [2]): 550 nM

Structure (SMILES): CC(C)(C)[C@H](NC(=O)N[C@H](CNS(=O)(=O)c1ccccc1)C(C)(C)C)C(=O)N1C[C@H]2[C@@H]([C@H]1C(=O)NC(CC1CCC1)C(=O)C(N)=O)C2(C)C (some centres undefined)
- Ki [1]: 13 nM

Structure (SMILES): CC(C)[C@H](CN(C)S(=O)(=O)c1ccccc1)NC(=O)N[C@H](C(=O)N1C[C@H]2[C@@H]([C@H]1C(=O)NC(CC1CC1)C(=O)C(N)=O)C2(C)C)C(C)(C)C (some centres undefined)
- Ki [1]: 6 nM
- EC90 (Hepatitis C virus [2]): 130 nM
- Selectivity ratio [5]: 680

Structure (SMILES): CC(C)[C@@H](CNS(C)(=O)=O)NC(=O)N[C@H](C(=O)N1C[C@H]2[C@@H]([C@H]1C(=O)NC(CC1CCC1)C(=O)C(N)=O)C2(C)C)C(C)(C)C (some centres undefined)
- Ki [1]: 31 nM
- EC90 (Hepatitis C virus [2]): 2000 nM

Structure (SMILES): CC(C)C[C@@](C)(CN(C)S(=O)(=O)c1ccccc1)NC(=O)N[C@H](C(=O)N1C[C@H]2[C@@H]([C@H]1C(=O)NC(CC1CCC1)C(=O)C(N)=O)C2(C)C)C(C)(C)C (some centres undefined)
- Ki [1]: 80 nM

Structure (SMILES): CC(C)C(CN(C)S(=O)(=O)c1ccccc1)NC(=O)N[C@H](C(=O)N1C[C@H]2[C@@H]([C@H]1C(=O)NC(CC1CCC1)C(=O)C(N)=O)C2(C)C)C(C)(C)C (single isomer, unassigned)
- Ki [1]: 8 nM
- EC90 (Hepatitis C virus [2]): 140 nM
- Selectivity ratio [5]: 3100

Structure (SMILES): C=CCNC(=O)C(=O)C(CCCC)NC(=O)[C@@H]1[C@@H]2[C@H](CN1C(=O)[C@@H](NC(=O)N[C@H](CN(C)S(=O)(=O)CC)C(C)(C)C)C1Cc3ccccc3C1)C2(C)C (some centres undefined)
- Ki [1]: 6 nM
- EC90 (Hepatitis C virus [2]): 60 nM
- AUC(0-t) at 6 h [4]: 1.2 µM·h
- AUC(0-t) at 6 h [6]: 0.69 µM·h
- Ratio (Hepatitis C virus [3]): 5

Structure (SMILES): CC(C)(C)NC(=O)N[C@H](C(=O)N1C[C@H]2[C@@H]([C@H]1C(=O)NC(CC1CCC1)C(=O)C(N)=O)C2(C)C)C(C)(C)C (some centres undefined) [BOCEPREVIR]
- Ki [1]: 14 nM
- EC90 (Hepatitis C virus [2]): 350 nM
- Selectivity ratio [5]: 2200

Structure (SMILES): CCS(=O)(=O)N(C)C[C@@H](NC(=O)N[C@H](C(=O)N1C[C@H]2[C@@H]([C@H]1C(=O)NC(CC1CCC1)C(=O)C(N)=O)C2(C)C)C(C)(C)C)C(C)(C)C (some centres undefined)
- Ki [1]: 4 nM
- EC90 (Hepatitis C virus [2]): 150 nM

Structure (SMILES): CC(C)[C@H](NC(=O)N[C@H](C(=O)N1C[C@H]2[C@@H]([C@H]1C(=O)NC(CC1CC1)C(=O)C(N)=O)C2(C)C)C(C)(C)C)C(=O)OC(C)(C)C (some centres undefined)
- Ki [1]: 6 nM
- EC90 (Hepatitis C virus [2]): 200 nM

Structure (SMILES): CC(C)[C@@H](CN(C)S(C)(=O)=O)NC(=O)N[C@H](C(=O)N1C[C@H]2[C@@H]([C@H]1C(=O)NC(CC1CCC1)C(=O)C(N)=O)C2(C)C)C(C)(C)C (some centres undefined)
- Ki [1]: 4 nM
- EC90 (Hepatitis C virus [2]): 350 nM

Structure (SMILES): C=CCNC(=O)C(=O)C(CCC)NC(=O)[C@@H]1[C@@H]2[C@H](CN1C(=O)[C@@H](NC(=O)N[C@H](CN(C)S(=O)(=O)N(C)C)C(C)(C)C)C1Cc3ccccc3C1)C2(C)C (some centres undefined)
- Ki [1]: 11 nM
- EC90 (Hepatitis C virus [2]): 100 nM

Structure (SMILES): CN(CC1(NC(=O)N[C@H](C(=O)N2C[C@H]3[C@@H]([C@H]2C(=O)NC(CC2CCC2)C(=O)C(N)=O)C3(C)C)C(C)(C)C)CCCCC1)S(=O)(=O)c1ccccc1 (some centres undefined)
- Ki [1]: 12 nM
- EC90 (Hepatitis C virus [2]): 400 nM

Structure (SMILES): CN(C[C@@H](NC(=O)N[C@H](C(=O)N1C[C@H]2[C@@H]([C@H]1C(=O)NC(CC1CCC1)C(=O)C(N)=O)C2(C)C)C(C)(C)C)C(C)(C)C)S(=O)(=O)c1cccs1 (some centres undefined)
- Ki [1]: 4 nM
- EC90 (Hepatitis C virus [2]): 60 nM
- AUC (Rattus norvegicus): 0.11 µM·h

Structure (SMILES): C=CCNC(=O)C(=O)C(CCC)NC(=O)[C@@H]1[C@@H]2[C@H](CN1C(=O)[C@@H](NC(=O)N[C@H](CN(C)S(=O)(=O)c1cccs1)C(C)(C)C)C(C)(C)C)C2(C)C (some centres undefined)
- Ki [1]: 10 nM
- EC90 (Hepatitis C virus [2]): 260 nM
- AUC (Rattus norvegicus): 1.38 µM·h

Structure (SMILES): C=CCNC(=O)C(=O)C(CCC)NC(=O)[C@@H]1[C@@H]2[C@H](CN1C(=O)[C@@H](NC(=O)N[C@H](CN(C)S(=O)(=O)CC)C(C)(C)C)C1Cc3ccccc3C1)C2(C)C (some centres undefined)
- Ki [1]: 6 nM
- EC90 (Hepatitis C virus [2]): 100 nM

Structure (SMILES): C=CCNC(=O)C(=O)C(CCC)NC(=O)[C@@H]1[C@@H]2[C@H](CN1C(=O)[C@@H](NC(=O)N[C@H](CN(C)S(=O)(=O)CC)C(C)(C)C)C(C)(C)C)C2(C)C (some centres undefined)
- Ki [1]: 10 nM
- EC90 (Hepatitis C virus [2]): 150 nM
- AUC (Rattus norvegicus): 0.34 µM·h

Structure (SMILES): CC(C)[C@@H](CNS(=O)(=O)c1cccs1)NC(=O)N[C@H](C(=O)N1C[C@H]2[C@@H]([C@H]1C(=O)NC(CC1CCC1)C(=O)C(N)=O)C2(C)C)C(C)(C)C (some centres undefined)
- Ki [1]: 23 nM
- EC90 (Hepatitis C virus [2]): 600 nM

Structure (SMILES): CC(C)[C@@H](CN(C)S(=O)(=O)c1ccccc1)NC(=O)N[C@H](C(=O)N1C[C@H]2[C@@H]([C@H]1C(=O)NC(CC1CC1)C(=O)C(N)=O)C2(C)C)C(C)(C)C (some centres undefined)
- Ki [1]: 8 nM
- EC90 (Hepatitis C virus [2]): 130 nM
